Measurements as given in ChEMBL document CHEMBL5729420, “Substituted imidazo[1,2-c]pyrimidines as PRC2 inhibitors” (2022).

Biological target: Histone-binding protein RBBP4/Polycomb protein EED/Polycomb protein SUZ12/Zinc finger protein AEBP2 (Homo sapiens, UniProt O75530+Q09028+Q15022+Q6ZN18)
Assay: Enzymatic Activity Assay: An aliquot of each serial dilution of test compound was added to deep 384 well plate using Acoustic Technology instrument (Echo 550, LabCyte) containing reaction buffer (50 mM Tris-HCl (pH 8), 0.01% Brij35, 1 mM EDTA, 1 mM DTT, 1 mM PMSF and 1% DMSO), 10 nM purified PRC2 complex and 0.05 mg/ml core histone H3 in a 5 μl volume. The reaction was mixed gently and then pre-incubated for 20 min at 30° C. The enzymatic reaction was initiated by adding 1 uM S-Adenosyl-L-[methyl-3H]methionine and incubated for 1 hr at 30° C. After 1 hr, the reaction product was detected using a filter binding method and the amount of tritiated H3 core histone was quantitated using a scintillation counter.
Type: protein-complex assay

Sequence of Histone-binding protein RBBP4/Polycomb protein EED/Polycomb protein SUZ12/Zinc finger protein AEBP2 (O75530 whole entry): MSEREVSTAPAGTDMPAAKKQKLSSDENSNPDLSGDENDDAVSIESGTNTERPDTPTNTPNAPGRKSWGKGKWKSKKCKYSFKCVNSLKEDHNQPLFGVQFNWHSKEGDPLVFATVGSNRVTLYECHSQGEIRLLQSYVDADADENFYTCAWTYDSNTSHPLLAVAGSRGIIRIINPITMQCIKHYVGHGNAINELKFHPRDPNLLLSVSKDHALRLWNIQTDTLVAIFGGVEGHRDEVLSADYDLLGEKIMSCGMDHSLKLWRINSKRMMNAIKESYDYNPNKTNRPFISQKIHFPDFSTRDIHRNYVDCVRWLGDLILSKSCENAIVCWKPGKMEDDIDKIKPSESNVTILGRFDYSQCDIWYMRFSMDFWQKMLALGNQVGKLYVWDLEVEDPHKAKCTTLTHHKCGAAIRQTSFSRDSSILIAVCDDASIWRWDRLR
Sequence of Histone-binding protein RBBP4/Polycomb protein EED/Polycomb protein SUZ12/Zinc finger protein AEBP2 (Q15022 whole entry): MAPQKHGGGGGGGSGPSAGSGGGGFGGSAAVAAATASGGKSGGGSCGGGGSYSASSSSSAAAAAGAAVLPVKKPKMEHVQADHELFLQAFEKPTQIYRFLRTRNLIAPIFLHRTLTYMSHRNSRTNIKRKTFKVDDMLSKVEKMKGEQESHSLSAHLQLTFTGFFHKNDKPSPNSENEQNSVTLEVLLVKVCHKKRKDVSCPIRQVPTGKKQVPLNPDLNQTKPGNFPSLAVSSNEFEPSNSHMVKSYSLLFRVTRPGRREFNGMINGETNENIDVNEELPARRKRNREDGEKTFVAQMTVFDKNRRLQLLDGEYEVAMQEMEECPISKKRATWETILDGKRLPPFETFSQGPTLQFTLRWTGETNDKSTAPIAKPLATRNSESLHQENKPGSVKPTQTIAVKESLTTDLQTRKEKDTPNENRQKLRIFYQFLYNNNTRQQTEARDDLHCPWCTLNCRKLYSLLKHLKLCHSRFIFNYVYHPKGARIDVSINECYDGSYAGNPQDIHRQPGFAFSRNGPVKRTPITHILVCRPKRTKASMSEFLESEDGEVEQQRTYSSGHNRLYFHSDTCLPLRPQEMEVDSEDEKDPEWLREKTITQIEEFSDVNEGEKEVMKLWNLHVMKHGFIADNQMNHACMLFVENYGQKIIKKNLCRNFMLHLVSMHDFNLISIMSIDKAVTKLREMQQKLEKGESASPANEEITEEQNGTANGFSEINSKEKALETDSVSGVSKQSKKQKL
Sequence of Histone-binding protein RBBP4/Polycomb protein EED/Polycomb protein SUZ12/Zinc finger protein AEBP2 (Q6ZN18 whole entry): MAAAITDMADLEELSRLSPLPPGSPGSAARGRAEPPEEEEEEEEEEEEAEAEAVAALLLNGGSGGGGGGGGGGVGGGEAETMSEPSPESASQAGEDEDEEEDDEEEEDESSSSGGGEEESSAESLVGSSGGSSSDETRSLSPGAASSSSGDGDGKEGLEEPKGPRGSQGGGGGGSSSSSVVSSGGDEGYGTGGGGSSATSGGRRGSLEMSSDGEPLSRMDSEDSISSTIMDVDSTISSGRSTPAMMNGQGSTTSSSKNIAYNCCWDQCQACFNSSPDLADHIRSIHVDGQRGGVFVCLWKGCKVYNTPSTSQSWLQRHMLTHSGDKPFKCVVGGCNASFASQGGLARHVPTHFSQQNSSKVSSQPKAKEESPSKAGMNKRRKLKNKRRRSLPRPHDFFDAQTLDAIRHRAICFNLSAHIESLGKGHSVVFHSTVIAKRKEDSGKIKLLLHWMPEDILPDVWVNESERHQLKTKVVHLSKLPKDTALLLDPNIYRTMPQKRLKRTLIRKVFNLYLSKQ
Sequence of Histone-binding protein RBBP4/Polycomb protein EED/Polycomb protein SUZ12/Zinc finger protein AEBP2 (Q09028 whole entry): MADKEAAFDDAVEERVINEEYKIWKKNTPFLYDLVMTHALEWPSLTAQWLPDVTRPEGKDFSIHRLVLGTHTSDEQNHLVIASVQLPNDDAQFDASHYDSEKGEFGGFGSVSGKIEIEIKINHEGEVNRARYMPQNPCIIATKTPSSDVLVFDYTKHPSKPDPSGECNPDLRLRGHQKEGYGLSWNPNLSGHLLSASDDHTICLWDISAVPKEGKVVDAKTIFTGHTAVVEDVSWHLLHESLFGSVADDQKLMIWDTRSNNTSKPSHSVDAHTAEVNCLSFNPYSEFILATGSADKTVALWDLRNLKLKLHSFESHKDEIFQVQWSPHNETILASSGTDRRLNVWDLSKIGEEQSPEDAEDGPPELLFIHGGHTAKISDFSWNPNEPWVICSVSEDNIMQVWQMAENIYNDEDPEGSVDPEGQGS

- IC50: > 500 nM
SMILES: Cc1cc(-c2cnc(NCc3c(F)ccc4c3CCCO4)n3cc(C#N)nc23)n(C)n1
